From ChEMBL document CHEMBL1151541, “Modified thrombin receptor-agonist peptide ligands. Synthesis and conformational analysis of analogs of the N-terminal tripeptide region” (1995)
Numbered stars: 1 amine (or outer) side, 2 acyl side, 3 side chain; on linkers, the order of the positions; unused ones are H or OH. Square brackets hold non-standard residues; d marks the D form. Peptide text beside a SMILES is read from it. * marks the point of attachment. ξ: configuration not given here. X2 = N[C@@H](CO)C(=O)CN([C@@H](Cc1ccccc1)C(=O)[*:2])[*:1]; X3 = C[C@@H](c1ccccc1)[C@H](N[*:1])C(=O)[*:2]; NMe2Phe = CN(C)[C@@H](Cc1ccccc1)C(=O)*; NEtPhe = CCN[C@@H](Cc1ccccc1)C(=O)O; X1 = CCN(CC)[C@@H](Cc1ccccc1)C(=O)*; NMeF = CN[C@@H](Cc1ccccc1)C(=O)O; Tic = O=C(O)[C@@H]1Cc2ccccc2CN1; Aib = CC(C)(N)C(=O)O; Propionyl = CCC(=O)*; Butyryl = CCCC(=O)*; ξLac = CC(O)C(=O)O; For = O=C*

organism: Homo sapiens; experiment: Agonist activity in human platelet aggregation; assay type: functional; conditions: read-out: ED50 (the source's name)

EC50 [µM] | Molecule
1.6 | CC(C)C[C@H](NC(=O)[C@H]1CCCN1C(=O)[C@@H](NC(=O)[C@@H](N)CO)[C@H](C)c1ccccc1)C(=O)N[C@@H](CCCN=C(N)N)C(=O)N[C@@H](CC(N)=O)C(=O)O
2 | CC(C)C[C@H](NC(=O)[C@H](CC(C)C)NC(=O)[C@@H](NC(=O)[C@@H](N)CO)[C@H](C)c1ccccc1)C(=O)N[C@@H](CCCN=C(N)N)C(=O)N[C@@H](CC(N)=O)C(=O)O
> 1000 | CC(C)C[C@H](NCC(=O)[C@H](Cc1ccccc1)NC(=O)[C@@H](N)CO)C(=O)N[C@@H](CC(C)C)C(=O)N[C@@H](CCCN=C(N)N)C(=O)N[C@@H](CC(N)=O)C(=O)O
216 | CC(C)C[C@H](NC(=O)[C@H]1CCCN1C(=O)[C@@H](NC(=O)[C@@H](N)CO)[C@@H](C)c1ccccc1)C(=O)N[C@@H](CCCN=C(N)N)C(=O)N[C@@H](CC(N)=O)C(=O)O
> 1000 | CC(C)C[C@H](NC(=O)[C@H](CC(C)C)NC(=O)[C@H](Cc1ccccc1)N(C)C(=O)[C@@H](N)CO)C(=O)N[C@@H](CCCN=C(N)N)C(=O)N[C@@H](CC(N)=O)C(=O)O
169 | CC(C)C[C@H](NC(=O)[C@H](CC(C)C)NC(=O)[C@](C)(Cc1ccccc1)NC(=O)[C@@H](N)CO)C(=O)N[C@@H](CCCN=C(N)N)C(=O)N[C@@H](CC(N)=O)C(=O)O
5.3 | CC(C)C[C@H](NC(=O)[C@H]1CCCN1C(=O)[C@H](Cc1ccccc1)NC(=O)[C@@H](N)CO)C(=O)N[C@@H](CCCN=C(N)N)C(=O)N[C@@H](CC(N)=O)C(=O)O
70 | CC(C)C[C@H](NC(=O)[C@H](CC(C)C)N(C)C(=O)[C@H](Cc1ccccc1)NC(=O)[C@@H](N)CO)C(=O)N[C@@H](CCCN=C(N)N)C(=O)N[C@@H](CC(N)=O)C(=O)O
0.92 | CC(C)C[C@H](NC(=O)[C@H](CC(C)C)NC(=O)[C@H](Cc1ccccc1)NC(=O)[C@@H](N)CO)C(=O)N[C@@H](CCCN=C(N)N)C(=O)N[C@@H](CC(N)=O)C(=O)O
75.1 | CCCC(=O)N[C@@H](Cc1ccccc1)C(=O)N[C@@H](CC(C)C)C(=O)N[C@@H](CC(C)C)C(=O)N[C@@H](CCCN=C(N)N)C(=O)N[C@@H](CC(N)=O)C(=O)O (Butyryl-FLLRN-OH)
62.4 | CC(C)C[C@H](NC(=O)[C@H](Cc1ccccc1)NC=O)C(=O)N[C@@H](CC(C)C)C(=O)N[C@@H](CCCN=C(N)N)C(=O)N[C@@H](CC(N)=O)C(=O)O (For-FLLRN-OH)
> 1000 | CC(C)C[C@H](NC(=O)C(C)(C)NC(=O)[C@H](Cc1ccccc1)NC(=O)[C@@H](N)CO)C(=O)N[C@@H](CCCN=C(N)N)C(=O)N[C@@H](CC(N)=O)C(=O)O (H-SF[Aib]LRN-OH)
4.6 | CC(C)C[C@H](NC(=O)[C@@H]1Cc2ccccc2CN1C(=O)[C@H](Cc1ccccc1)NC(=O)[C@@H](N)CO)C(=O)N[C@@H](CCCN=C(N)N)C(=O)N[C@@H](CC(N)=O)C(=O)O (H-SF[Tic]LRN-OH)
> 1000 | CC(C)C[C@H](NC(=O)[C@H](CC(C)C)NC(=O)[C@@H]1Cc2ccccc2CN1C(=O)[C@@H](N)CO)C(=O)N[C@@H](CCCN=C(N)N)C(=O)N[C@@H](CC(N)=O)C(=O)O (H-S[Tic]LLRN-OH)
27 | CC(C)C[C@H](NC(=O)[C@H](CC(C)C)NC(=O)[C@@H](NC(=O)[C@@H](N)CO)[C@@H](C)c1ccccc1)C(=O)N[C@@H](CCCN=C(N)N)C(=O)N[C@@H](CC(N)=O)C(=O)O (H-S[X3]LLRN-OH)
> 1000 | CCN[C@@H](Cc1ccccc1)C(=O)N[C@@H](CC(C)C)C(=O)N[C@@H](CC(C)C)C(=O)N[C@@H](CCCN=C(N)N)C(=O)N[C@@H](CC(N)=O)C(=O)O (H-[NEtPhe]LLRN-OH)
> 1000 | CN[C@@H](Cc1ccccc1)C(=O)N[C@@H](CC(C)C)C(=O)N[C@@H](CC(C)C)C(=O)N[C@@H](CCCN=C(N)N)C(=O)N[C@@H](CC(N)=O)C(=O)O (H-[NMeF]LLRN-OH)
382 | CC(C)C[C@H](NC(=O)[C@H](Cc1ccccc1)NCC(=O)[C@@H](N)CO)C(=O)N[C@@H](CC(C)C)C(=O)N[C@@H](CCCN=C(N)N)C(=O)N[C@@H](CC(N)=O)C(=O)O (H-[X2]LLRN-OH)
49 | CNC(=O)C[C@H](NC(=O)[C@H](CCCN=C(N)N)NC(=O)[C@H](CC(C)C)NC(=O)[C@H](CC(C)C)NC(=O)[C@H](Cc1ccccc1)NC(=O)C(C)O)C(=O)O (some centres undefined) (H-[ξLac]FLLRD(NHMe)-OH)
> 1000 | CC(C)C[C@H](NC(=O)[C@H](CC(C)C)NC(=O)[C@H](Cc1ccccc1)N(C)C)C(=O)N[C@@H](CCCN=C(N)N)C(=O)N[C@@H](CC(N)=O)C(=O)O (NMe2Phe-LLRN-OH)
35 | CCC(=O)N[C@@H](Cc1ccccc1)C(=O)N[C@@H](CC(C)C)C(=O)N[C@@H](CC(C)C)C(=O)N[C@@H](CCCN=C(N)N)C(=O)N[C@@H](CC(N)=O)C(=O)O (Propionyl-FLLRN-OH)
> 1000 | CCN(CC)[C@@H](Cc1ccccc1)C(=O)N[C@@H](CC(C)C)C(=O)N[C@@H](CC(C)C)C(=O)N[C@@H](CCCN=C(N)N)C(=O)N[C@@H](CC(N)=O)C(=O)O (X1-LLRN-OH)
84.5 | Ac-FLLRN-OH
14.8 | H-SFGLRN-OH
